Assay results: patent US9980965B2, “Treatment of autoimmune disease” (MingSight Pharmaceuticals, Inc., priority 2014, dated 2018)
Like-named read-outs stand apart in the source and are kept apart here. Marks after values point to notes of the source that are not given here.

Legend:
[1] = Separate pharmacokinetics experiments in mice; type: in vivo; details: 60 mg/kg dose, oral
pSHP2 (PKCβ cell assay) = experiment: pSHP2 (PKCβ cell assay); type: cell-based
Description: (§1) The methods for these determinations have been described (Grant, et al. 2010, Eur J Pharmacol. 627:16-25).

[2] = tested on: EAE induced by MBP69-88/CFA immunization and pertussis toxin injection; type: in vivo, Lewis rats; details: for Median day of onset (all rats) / Mean day of onset +/− SEM (sick rats) / EAE incidence (%): p.o.; for Median day of onset (all rats): vehicle 9.0; for Mean day of onset +/− SEM (sick rats): vehicle 9.3 +/− 0.6; for EAE incidence (%): vehicle 100.0%
Human PKC iota = target: T1, Human PKC iota (Homo sapiens, UniProt P41743); experiment: In vitro PKC inhibition, PKC iota; type: biochemical
T1 sequence (P41743 1-596): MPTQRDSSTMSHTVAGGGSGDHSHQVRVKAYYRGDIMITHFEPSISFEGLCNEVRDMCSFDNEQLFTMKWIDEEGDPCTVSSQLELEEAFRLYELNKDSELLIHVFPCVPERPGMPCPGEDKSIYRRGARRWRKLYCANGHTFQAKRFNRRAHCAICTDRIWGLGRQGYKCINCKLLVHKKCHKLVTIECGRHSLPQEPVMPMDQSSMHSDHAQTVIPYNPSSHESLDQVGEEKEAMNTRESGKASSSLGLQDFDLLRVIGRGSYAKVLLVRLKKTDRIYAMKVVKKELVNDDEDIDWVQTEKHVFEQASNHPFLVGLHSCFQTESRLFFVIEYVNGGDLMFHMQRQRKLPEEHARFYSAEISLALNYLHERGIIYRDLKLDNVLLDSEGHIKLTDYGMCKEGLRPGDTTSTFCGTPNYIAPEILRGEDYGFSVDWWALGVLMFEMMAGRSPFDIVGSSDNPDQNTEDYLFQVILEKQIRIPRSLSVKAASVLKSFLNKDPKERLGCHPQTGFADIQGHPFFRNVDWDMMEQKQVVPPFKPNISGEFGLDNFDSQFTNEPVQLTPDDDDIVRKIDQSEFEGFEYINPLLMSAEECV
Description: as §1

Human PKC delta = Human PKC delta (Homo sapiens, UniProt Q05655); experiment: In vitro PKC inhibition, PKC delta; type: biochemical
Description: as §1

Human PKC betaI = Human PKC betaI (Homo sapiens, UniProt P05771); experiment: In vitro PKC inhibition, PKC betaI; type: biochemical
Human PKC betaII = Human PKC betaII (Homo sapiens, UniProt P05771); experiment: In vitro PKC inhibition, PKC betaII; type: biochemical
Human PKC gamma = Human PKC gamma (Homo sapiens, UniProt P05129); experiment: In vitro PKC inhibition, PKC gamma; type: biochemical
Description: as §1

Human PKC mu = target: T2, Human PKC mu (Homo sapiens, UniProt Q15139); experiment: In vitro PKC inhibition, PKC mu; type: biochemical
T2 sequence (Q15139 1-912): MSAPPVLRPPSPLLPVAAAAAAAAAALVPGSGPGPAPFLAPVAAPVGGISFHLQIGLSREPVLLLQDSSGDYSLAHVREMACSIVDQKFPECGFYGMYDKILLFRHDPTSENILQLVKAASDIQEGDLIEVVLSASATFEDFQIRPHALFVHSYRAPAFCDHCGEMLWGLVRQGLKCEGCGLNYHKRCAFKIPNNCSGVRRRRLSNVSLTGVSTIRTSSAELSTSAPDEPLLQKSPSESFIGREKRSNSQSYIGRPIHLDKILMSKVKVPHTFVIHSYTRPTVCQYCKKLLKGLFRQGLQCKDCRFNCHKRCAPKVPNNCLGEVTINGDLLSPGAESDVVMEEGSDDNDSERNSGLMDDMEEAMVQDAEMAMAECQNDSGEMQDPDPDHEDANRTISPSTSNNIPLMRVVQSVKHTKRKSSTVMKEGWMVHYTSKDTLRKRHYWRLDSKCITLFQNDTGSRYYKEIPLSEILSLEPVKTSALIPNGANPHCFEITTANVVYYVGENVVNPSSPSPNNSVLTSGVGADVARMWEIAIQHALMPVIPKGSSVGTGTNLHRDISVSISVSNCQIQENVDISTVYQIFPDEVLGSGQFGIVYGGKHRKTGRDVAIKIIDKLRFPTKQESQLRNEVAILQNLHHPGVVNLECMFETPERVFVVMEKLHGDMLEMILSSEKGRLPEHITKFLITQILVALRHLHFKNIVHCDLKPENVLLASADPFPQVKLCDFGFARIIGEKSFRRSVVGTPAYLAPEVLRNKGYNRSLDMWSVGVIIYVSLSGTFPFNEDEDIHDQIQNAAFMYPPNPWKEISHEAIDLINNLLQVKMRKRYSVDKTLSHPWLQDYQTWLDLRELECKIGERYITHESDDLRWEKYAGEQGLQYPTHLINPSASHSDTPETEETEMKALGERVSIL
Description: as §1

[3] = 15 and 30 mg/kg BID, compared to the vehicle control group

Chain of Human PKC betaII (P05771 1-673 isoform P05771-2): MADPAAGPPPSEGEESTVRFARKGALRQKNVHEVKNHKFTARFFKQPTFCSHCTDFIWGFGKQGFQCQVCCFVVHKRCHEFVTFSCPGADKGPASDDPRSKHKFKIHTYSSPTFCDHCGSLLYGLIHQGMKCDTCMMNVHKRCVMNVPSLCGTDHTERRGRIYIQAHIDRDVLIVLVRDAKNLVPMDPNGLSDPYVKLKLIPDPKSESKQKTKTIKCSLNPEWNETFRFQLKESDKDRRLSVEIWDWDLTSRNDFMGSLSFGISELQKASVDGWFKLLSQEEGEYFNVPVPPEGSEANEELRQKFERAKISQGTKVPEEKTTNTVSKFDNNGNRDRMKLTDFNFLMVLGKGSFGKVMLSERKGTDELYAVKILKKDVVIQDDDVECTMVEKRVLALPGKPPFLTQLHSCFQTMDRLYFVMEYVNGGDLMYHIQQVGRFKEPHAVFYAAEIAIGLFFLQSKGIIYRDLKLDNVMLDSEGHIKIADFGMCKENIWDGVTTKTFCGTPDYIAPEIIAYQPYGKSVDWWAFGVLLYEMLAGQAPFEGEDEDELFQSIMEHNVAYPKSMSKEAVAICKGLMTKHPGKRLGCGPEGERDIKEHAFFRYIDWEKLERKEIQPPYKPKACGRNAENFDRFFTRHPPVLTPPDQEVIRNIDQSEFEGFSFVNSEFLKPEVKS
Chain of Human PKC delta (Q05655 whole entry): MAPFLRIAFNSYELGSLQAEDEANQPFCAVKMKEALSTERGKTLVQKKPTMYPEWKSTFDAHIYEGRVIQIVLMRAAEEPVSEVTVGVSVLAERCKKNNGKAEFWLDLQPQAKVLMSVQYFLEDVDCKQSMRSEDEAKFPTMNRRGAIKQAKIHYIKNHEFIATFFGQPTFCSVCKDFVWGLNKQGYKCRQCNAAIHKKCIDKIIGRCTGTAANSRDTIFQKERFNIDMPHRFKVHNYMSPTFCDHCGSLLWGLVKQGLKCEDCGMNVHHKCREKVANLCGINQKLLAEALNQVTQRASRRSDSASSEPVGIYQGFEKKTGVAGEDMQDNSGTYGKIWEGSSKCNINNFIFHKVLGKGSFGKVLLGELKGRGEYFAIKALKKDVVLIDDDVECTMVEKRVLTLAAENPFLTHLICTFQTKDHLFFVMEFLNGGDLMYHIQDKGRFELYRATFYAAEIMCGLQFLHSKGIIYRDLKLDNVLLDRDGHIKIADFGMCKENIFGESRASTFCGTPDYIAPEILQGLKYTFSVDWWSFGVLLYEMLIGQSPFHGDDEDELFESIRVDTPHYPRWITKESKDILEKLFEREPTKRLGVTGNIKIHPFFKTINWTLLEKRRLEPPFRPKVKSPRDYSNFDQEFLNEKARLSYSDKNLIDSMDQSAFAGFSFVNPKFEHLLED
Chain of Human PKC betaI (P05771 whole entry): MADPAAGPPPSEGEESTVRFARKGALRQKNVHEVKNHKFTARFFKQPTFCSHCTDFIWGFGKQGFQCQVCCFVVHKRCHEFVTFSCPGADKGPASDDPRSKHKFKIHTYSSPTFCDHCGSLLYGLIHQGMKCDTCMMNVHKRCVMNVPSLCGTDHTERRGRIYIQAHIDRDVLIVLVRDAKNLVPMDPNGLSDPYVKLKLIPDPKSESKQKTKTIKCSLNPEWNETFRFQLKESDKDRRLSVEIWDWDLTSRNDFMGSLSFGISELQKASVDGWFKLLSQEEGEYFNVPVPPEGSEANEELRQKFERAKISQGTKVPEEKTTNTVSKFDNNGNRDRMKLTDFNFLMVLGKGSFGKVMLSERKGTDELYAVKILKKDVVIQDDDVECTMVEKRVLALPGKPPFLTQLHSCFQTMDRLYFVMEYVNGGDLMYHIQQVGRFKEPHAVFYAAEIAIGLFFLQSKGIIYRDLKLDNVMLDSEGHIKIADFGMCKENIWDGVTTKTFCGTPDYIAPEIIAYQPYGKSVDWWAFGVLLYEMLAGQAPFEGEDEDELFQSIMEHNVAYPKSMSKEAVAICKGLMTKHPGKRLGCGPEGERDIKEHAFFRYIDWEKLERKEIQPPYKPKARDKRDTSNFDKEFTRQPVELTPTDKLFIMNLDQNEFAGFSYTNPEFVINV

With `Cc1ncc(F)c(Nc2n[nH]c3c2CN(C(=O)N2C[C@@H](C)N(CC4CCOCC4)C[C@@H]2C)C3(C)C)n1` [Compound A, 5-{[(2S,5R)-2,5-Dimethyl-4-(tetrahydro-2H-pyran-4-ylmethyl)piperazin-1-yl]carbonyl}-N-(5-fluoro-2-methylpyrimidin-4-yl)-6,6-dimethyl-1,4,5,6-tetrahydropyrrolo[3,4-c]pyrazol-3-amine] the exposure in mice [1] was “unexpectedly low and insufficient exposure”, the IC50 (pSHP2 (PKCβ cell assay)) was 9.8 nM and the “Median day of onset (all rats)” value ([2]; 7.5 mg/kg, BID) was 9.0 days. The “Mean day of onset +/− SEM (sick rats)” value ([2]; 7.5 mg/kg, BID) was 9.0 ± 0.5 days, the “EAE incidence (%)” value ([2]; 7.5 mg/kg, BID) was 100.0% and the “Median day of onset (all rats)” value ([2]; 15 mg/kg, BID) was 8.0 days. For the same compound, the “Mean day of onset +/− SEM (sick rats)” value ([2]; 15 mg/kg, BID) was 8.5 ± 0.4 days, the “EAE incidence (%)” value ([2]; 15 mg/kg, BID) was 100.0% and the “Mean day of onset +/− SEM (sick rats)” value ([2]; 30 mg/kg, BID) was 9.0 ± 0.9 days. The “EAE incidence (%)” value ([2]; 30 mg/kg, BID, p < 0.05 vs. vehicle) was 50.0%*, the “clinical score (EAE)” value ([2]; 7.5, 15 and 30 mg/kg BID) was “dose-dependent decrease” and the “end severity (FIG. 5)” value [2, 3] was “significantly reduced”. The “maximum EAE severity (FIG. 5)” value [2, 3] was “significantly reduced”, the “EAE incidence (in words)” value ([2]; highest dose (30 mg/kg BID)) was “significantly reduced” and the “efficacy compared with fingolimod” value ([2]; highest dose employed (30 mg/kg BID) vs. FTY720 0.5 mg/kg QD) was “appeared superior to fingolimod”. The IC50 (Human PKC iota) was greater than 1000 nM, the IC50 (Human PKC delta) was greater than 1000 nM and the “inhibition of PKC delta (in words)” value (Human PKC delta) was “does not significantly inhibit”. It also gave an IC50 (Human PKC betaI) of 8.1 nM, an IC50 (Human PKC betaII) of 7.6 nM and a Ki (Human PKC betaII; recombinant PKC beta (betaII in Table 1)) of 5.3 nM. For the same compound, the IC50 (Human PKC gamma) was 57.5 nM and the IC50 (Human PKC mu) was 314 nM.
With `CCCCCCCCc1ccc(CCC(N)(CO)CO)cc1` [FTY720, fingolimod, reference compound] the “Median day of onset (all rats)” value ([2]; 0.5 mg/kg, QD) was 8.0 days and the “Mean day of onset +/− SEM (sick rats)” value ([2]; 0.5 mg/kg, QD) was 8.0 ± 0.3 days.
